Results published in the CheMixHub ionic liquid set.
± gives the uncertainty stated by the source.

Test: xn = mol fraction of the nth substance listed
Conditions: 100 kPa

CCCCCCCC[n+]1ccccc1.[Br-] + CC(C)[C@H](NC(=O)CN)C(=O)O + O
Conditions | electrical conductivity [S/m]
298.15 K, x2 = 0.001788, x1 = 0.005721 | 1.59 ± 0.096
298.15 K, x2 = 0.001788, x1 = 0.00598 | 1.64 ± 0.098
298.15 K, x2 = 0.001789, x1 = 0.00542 | 1.54 ± 0.092
298.15 K, x2 = 0.00179, x1 = 0.004736 | 1.42 ± 0.085
298.15 K, x2 = 0.00179, x1 = 0.005091 | 1.49 ± 0.089
298.15 K, x2 = 0.001791, x1 = 0.004349 | 1.35 ± 0.081
298.15 K, x2 = 0.001792, x1 = 0.003932 | 1.27 ± 0.076
298.15 K, x2 = 0.001793, x1 = 0.002972 | 1.03 ± 0.062
298.15 K, x2 = 0.001793, x1 = 0.003476 | 1.17 ± 0.07
298.15 K, x2 = 0.001794, x1 = 0.002419 | 0.883 ± 0.053
298.15 K, x2 = 0.001796, x1 = 0.001458 | 0.586 ± 0.035
298.15 K, x2 = 0.001796, x1 = 0.001805 | 0.699 ± 0.042
298.15 K, x2 = 0.001797, x1 = 0.0007114 | 0.326 ± 0.02
298.15 K, x2 = 0.001797, x1 = 0.001099 | 0.462 ± 0.028
303.15 K, x2 = 0.0008946, x1 = 0.006155 | 1.91 ± 0.12
303.15 K, x2 = 0.0008949, x1 = 0.005878 | 1.86 ± 0.11
303.15 K, x2 = 0.0008952, x1 = 0.005571 | 1.8 ± 0.11
303.15 K, x2 = 0.0008955, x1 = 0.005244 | 1.74 ± 0.1
303.15 K, x2 = 0.0008958, x1 = 0.004883 | 1.67 ± 0.1
303.15 K, x2 = 0.0008961, x1 = 0.004503 | 1.6 ± 0.096
303.15 K, x2 = 0.0008965, x1 = 0.004075 | 1.49 ± 0.09
303.15 K, x2 = 0.0008969, x1 = 0.003606 | 1.38 ± 0.083
303.15 K, x2 = 0.0008974, x1 = 0.003092 | 1.22 ± 0.073
303.15 K, x2 = 0.0008979, x1 = 0.002527 | 1.05 ± 0.063
303.15 K, x2 = 0.0008985, x1 = 0.001896 | 0.834 ± 0.05
303.15 K, x2 = 0.0008988, x1 = 0.001509 | 0.689 ± 0.042
303.15 K, x2 = 0.0008992, x1 = 0.001132 | 0.543 ± 0.033
303.15 K, x2 = 0.0008995, x1 = 0.0007259 | 0.385 ± 0.023
303.15 K, x2 = 0.001788, x1 = 0.005719 | 1.79 ± 0.11
303.15 K, x2 = 0.001788, x1 = 0.005978 | 1.84 ± 0.11
303.15 K, x2 = 0.001789, x1 = 0.005417 | 1.73 ± 0.1
303.15 K, x2 = 0.00179, x1 = 0.004734 | 1.6 ± 0.096
303.15 K, x2 = 0.00179, x1 = 0.005087 | 1.67 ± 0.1
303.15 K, x2 = 0.001791, x1 = 0.004349 | 1.52 ± 0.091
303.15 K, x2 = 0.001792, x1 = 0.00393 | 1.42 ± 0.085
303.15 K, x2 = 0.001793, x1 = 0.002972 | 1.16 ± 0.069
303.15 K, x2 = 0.001793, x1 = 0.003474 | 1.3 ± 0.078
303.15 K, x2 = 0.001794, x1 = 0.002419 | 0.983 ± 0.059
303.15 K, x2 = 0.001796, x1 = 0.001458 | 0.652 ± 0.039
303.15 K, x2 = 0.001796, x1 = 0.001805 | 0.778 ± 0.047
303.15 K, x2 = 0.001797, x1 = 0.0007114 | 0.361 ± 0.022
303.15 K, x2 = 0.001797, x1 = 0.001099 | 0.512 ± 0.031
308.15 K, x2 = 0.0008946, x1 = 0.006153 | 2.17 ± 0.13
308.15 K, x2 = 0.0008949, x1 = 0.005877 | 2.11 ± 0.13
308.15 K, x2 = 0.0008952, x1 = 0.00557 | 2.04 ± 0.12
308.15 K, x2 = 0.0008955, x1 = 0.005243 | 1.95 ± 0.12
308.15 K, x2 = 0.0008958, x1 = 0.004881 | 1.86 ± 0.11
308.15 K, x2 = 0.0008961, x1 = 0.004503 | 1.77 ± 0.11
308.15 K, x2 = 0.0008965, x1 = 0.004075 | 1.66 ± 0.1
308.15 K, x2 = 0.0008969, x1 = 0.003606 | 1.52 ± 0.091
308.15 K, x2 = 0.0008974, x1 = 0.003092 | 1.35 ± 0.081
308.15 K, x2 = 0.0008979, x1 = 0.002525 | 1.15 ± 0.069
308.15 K, x2 = 0.0008985, x1 = 0.001896 | 0.905 ± 0.054
308.15 K, x2 = 0.0008988, x1 = 0.001509 | 0.753 ± 0.045
308.15 K, x2 = 0.0008992, x1 = 0.001132 | 0.6 ± 0.036
308.15 K, x2 = 0.0008995, x1 = 0.0007259 | 0.446 ± 0.027
308.15 K, x2 = 0.001788, x1 = 0.005717 | 2 ± 0.12
308.15 K, x2 = 0.001788, x1 = 0.005974 | 2.06 ± 0.12
308.15 K, x2 = 0.001789, x1 = 0.005415 | 1.94 ± 0.12
308.15 K, x2 = 0.00179, x1 = 0.004732 | 1.78 ± 0.11
308.15 K, x2 = 0.00179, x1 = 0.005087 | 1.86 ± 0.11
308.15 K, x2 = 0.001791, x1 = 0.004348 | 1.68 ± 0.1
308.15 K, x2 = 0.001792, x1 = 0.00393 | 1.58 ± 0.095
308.15 K, x2 = 0.001793, x1 = 0.002972 | 1.28 ± 0.077
308.15 K, x2 = 0.001793, x1 = 0.003474 | 1.44 ± 0.086
308.15 K, x2 = 0.001794, x1 = 0.002419 | 1.09 ± 0.065
308.15 K, x2 = 0.001796, x1 = 0.001456 | 0.714 ± 0.043
308.15 K, x2 = 0.001796, x1 = 0.001805 | 0.853 ± 0.051
308.15 K, x2 = 0.001797, x1 = 0.0007114 | 0.409 ± 0.025
308.15 K, x2 = 0.001797, x1 = 0.001099 | 0.567 ± 0.034
